Assays:
T7 RNA polymerase = T7 RNA polymerase (Escherichia phage T7, UniProt P00573); experiment: In vitro transcription of luciferase mRNA by co-transcriptional capping (IVT yield); assay type: biochemical; conditions: 8 mM cap analog, luciferase DNA template, 37° C. 2 to 3 hours; compared with Cleancap AG(3′OMe) designated as 100%; FIG. 4
Description: For the mRNA synthesis reaction using the compounds prepared in Example 15 and Example 16 above, a transcription buffer was used, and the composition of the buffer was Tris-Cl buffer: spermidine:Triton X=4:2:1 volume ratio. In the buffer, 50 μg/ml luciferase DNA transcription template, 10 mM ATP, 10 mM CTP, 10 mM UTP, 2 mM GTP, and 8 mM compound prepared in Example 15 or Example 16, 300 KU/ml T7 RNA polymerase, 2 KU/ml RNase inhibitor protein, 20 U/ml inorganic pyrophosphatase, 40 mM Tris-HCl (pH 8.0), 50 mM magnesium chloride, and 10 mM dithiothreitol were added to prepare the transcription reaction mixture. […] The concentration of the purified mRNA sample was determined using a fluorometer instrument, and the total amount of mRNA was calculated by multiplying the concentration and reaction volume. Then, in order to derive the mRNA in vitro transcription (IVT) yield, the total amount of mRNA synthesized using each different cap analog was divided by the input L-DNA content to quantify the IVT yield value according to the cap analog. […] This may be calculated using [Equation 1] below. […]

HeLa cells = experiment: Translation of luciferase mRNA in HeLa cells (luciferase activity after transfection of capped mRNA); assay type: cell-based
Description: The translational activity of the mRNAs generated by the IVT reactions of each Example 15, Example 16, and ^7mG(3OMe)pppA(2′OMe)pG was evaluated by transfecting the corresponding mRNAs into the HeLa cell line. All mRNAs synthesized through IVT reaction before transfection were subjected to poly(A) tailing process. Specifically, IVT mRNA, whose mRNA synthesis reaction was terminated by adding DNase 1, was mixed with IVT mRNA:10× poly (A) polymerase reaction buffer:10 mM ATP solution:poly (A) polymerase enzyme (4 KU/ml):nuclease-free water=20:10:10:2:58 ratio (volume/volume), reacted at 37° C. for 30 minutes to 1 hour, and then incubated at 4° C. to terminate the reaction. […] Cells were harvested 6, 12, and 24 hours after transfection, and luciferase activity was measured using Renilla-Glo™ Luciferase Assay kit (Promega catalog #E2710) according to the manufacturer's recommendations: After removing the medium from the transfected cells, 50 μl phosphate buffer solution (PBS) was added. Afterwards, 50 μl of Renilla-Glo™ Luciferase Assay reagent was added, mixed, and incubated for 10 minutes, and then luciferase activity was detected using Varioskan LUX Multimode Microplate Reader (Thermo Fisher) (FIG. 5). […]

T7 RNA polymerase, sequence (P00573 whole entry): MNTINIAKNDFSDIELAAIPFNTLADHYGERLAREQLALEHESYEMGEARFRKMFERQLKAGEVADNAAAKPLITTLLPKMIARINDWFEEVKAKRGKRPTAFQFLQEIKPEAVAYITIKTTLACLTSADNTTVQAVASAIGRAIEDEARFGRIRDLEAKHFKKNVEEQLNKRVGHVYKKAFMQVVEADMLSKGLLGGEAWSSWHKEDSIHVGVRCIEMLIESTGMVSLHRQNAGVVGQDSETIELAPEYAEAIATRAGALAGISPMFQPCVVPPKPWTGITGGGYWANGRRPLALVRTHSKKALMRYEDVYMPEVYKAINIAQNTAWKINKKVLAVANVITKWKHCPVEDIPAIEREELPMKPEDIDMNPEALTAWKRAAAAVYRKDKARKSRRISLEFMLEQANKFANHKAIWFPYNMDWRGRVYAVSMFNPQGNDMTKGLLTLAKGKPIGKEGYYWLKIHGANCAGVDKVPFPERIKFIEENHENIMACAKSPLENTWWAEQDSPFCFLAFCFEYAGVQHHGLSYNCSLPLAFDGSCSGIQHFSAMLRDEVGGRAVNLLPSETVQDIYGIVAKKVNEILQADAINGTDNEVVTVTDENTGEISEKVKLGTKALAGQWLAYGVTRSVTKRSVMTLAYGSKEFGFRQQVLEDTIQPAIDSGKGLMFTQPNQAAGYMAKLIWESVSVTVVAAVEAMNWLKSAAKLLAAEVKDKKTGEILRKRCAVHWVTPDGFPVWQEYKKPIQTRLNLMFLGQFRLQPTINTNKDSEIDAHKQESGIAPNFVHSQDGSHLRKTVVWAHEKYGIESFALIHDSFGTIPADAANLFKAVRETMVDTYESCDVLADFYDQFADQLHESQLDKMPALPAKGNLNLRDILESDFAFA

CO[C@@H]1[C@H](OP(=O)(O)OC[C@H]2O[C@@H](n3cnc4c(=O)[nH]c(N)nc43)[C@H](O)[C@@H]2O)[C@@H](COP(=O)(O)OP(=O)(O)OP(=O)(O)OC[C@H]2O[C@@H](n3c[n+](C)c4c(=O)[nH]c(N)nc43)[C@H](OC(=O)C(C)(C)C)[C@@H]2OC(=O)C(C)(C)C)O[C@H]1n1cnc2c(N)ncnc21.[Na+].[Na+].[Na+] [Example 15, ^7mG(2′,3′ Pivaloyl)pppA(2′ OMe)pG]
IVT yield of mRNA relative to ^7mG(3′OMe)pppA(2′OMe)pG (T7 RNA polymerase): almost the same yield

^7mG(2′ or 3′monopivaloyl)pppA(2′OMe)pG [Example 16]
luciferase activity of mRNA capped with the compound (HeLa cells; 100 ng mRNA per well, 6 to 24 hours after transfection, compared with mRNA capped with ^7mG(3′OMe)pppA(2′OMe)pG, FIG. 5): higher luciferase activity
residual rate of protein expressed by capped mRNA (HeLa cells; 24 hours after transfection, inferred, compared with ^7mG(3′OMe)pppA(2′OMe)pG, FIG. 6): higher
IVT yield of mRNA relative to ^7mG(3′OMe)pppA(2′OMe)pG (T7 RNA polymerase): almost the same yield
